Experimental data published in PubChem BioAssay (NCI).
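Step 1: Grow cells in 96-well plates. Step 2: Expose to compound for 48 hours at 5 concentrations. Step 3: Interpolate endpoints linearly; if unreached, use highest concentration. TGI denotes the concentration required for complete inhibition of growth.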

Experiments:
Assay in all cases: inhibition of tumour cell growth, NCI panel, 48 h
[1] = tested on: M14 melanoma
[2] = tested on: SNB-75 CNS
[3] = tested on: K-562 leukemia
[4] = tested on: MCF7 breast
[5] = tested on: LOX IMVI melanoma
[6] = tested on: SK-MEL-28 melanoma
[7] = tested on: OVCAR-3 ovarian
[8] = tested on: MDA-MB-231 breast
[9] = tested on: A549 NSCLC
[10] = tested on: OVCAR-5 ovarian
[11] = tested on: OVCAR-8 ovarian
[12] = tested on: NCI-H460 lung
[13] = tested on: UACC-62 melanoma
[14] = tested on: HCT-15 colon
[15] = tested on: ACHN renal
[16] = tested on: NCI-H23 lung
[17] = tested on: A498 renal
[18] = tested on: RPMI-8226 leukemia
[19] = tested on: HL-60(TB) leukemia

SMILES	TGI [1] [µM]	TGI [2] [µM]	TGI [3] [µM]	TGI [4] [µM]	TGI [5] [µM]	TGI [6] [µM]	TGI [7] [µM]	TGI [8] [µM]	TGI [9] [µM]	TGI [10] [µM]	TGI [11] [µM]	TGI [12] [µM]	TGI [13] [µM]	TGI [14] [µM]	TGI [15] [µM]	TGI [16] [µM]	TGI [17] [µM]	TGI [18] [µM]	TGI [19] [µM]
COc1cc2c(cc1OC)CN1CCCc3cc(OC)c(OC)cc3C1C2 (configuration not stated)	> 100	52	> 100	95.2	> 100	> 100	> 100	> 100	> 100	> 100	> 100	> 100	> 100	> 100	> 100	> 100			
O=C(NNC(=S)Nc1ccc(Br)cc1)c1cc(-c2ccccc2)nc2ccccc12	34.8	> 100	89.8	47.1		53	33.1	65.9	58	79.3	57.7	43.5	50.2	66.9	> 100	55.8	28.6	53.7	
CCOC(=O)C(=[N+]=[N-])C(=O)CN1C(=O)C2CC(C)=C(C)CC2C1O (configuration not stated)	> 100	> 100	> 100	> 100	> 100	> 100	> 100		> 100	> 100	> 100	> 100	> 100		> 100	> 100		> 100	> 100
COc1ccc(/C=C/C(=N/NC(=O)N/N=C(/C=C/c2ccc(OC)cc2)C(C)(C)CN2CCCCC2)C(C)(C)CN2CCCCC2)cc1	3.12	2.89	1.89	6.26	2.82	2.92	3.81		3.49	8.16	3.4	3.82		7.06	3.19	> 10	3.73	4.23	3.22
COc1ccc(-c2nnc3n(Cc4ccccc4)c4ccccc4n3c2=O)cc1	> 100	41.8		> 100	> 100	> 100		> 100	> 100	> 100	> 100	> 100		> 100	99.5	> 100	99.6		> 100
Cc1cc(=O)[nH]c2cc(NC(=O)C(CCCN=C(N)N)NC(=O)OCc3ccccc3)ccc12 (configuration not stated)	> 100	> 100	> 100	> 100	> 100	> 100	> 100	> 100	> 100	> 100	> 100	> 100	> 100	> 100	> 100	> 100	> 100		> 100
N#CCCN(CCC#N)c1ccc(C(N=Nc2ccccc2)=Nc2ccc(Cl)cc2)cc1	> 100	> 100	> 100	> 100		> 100	> 100	> 100	> 100	> 100	> 100	> 100	> 100	> 100	> 100	> 100	> 100	> 100	
COC(=O)C(C(=O)C(=O)Nc1ccccc1C#N)c1nc2ccc([N+](=O)[O-])cc2[nH]c1=O (configuration not stated)	> 100	> 100		> 100	> 100	> 100	> 100	> 100	> 100	> 100	> 100	> 100	> 100	> 100	> 100	> 100			
CSc1cc(Br)ccc1-n1c(C(=O)c2ccccc2)c(SC)n(-c2ccccc2)c1=O	> 100	> 100	> 100	> 100	> 100	> 100	> 100	> 100	> 100	> 100	> 100	> 100	> 100	> 100	> 100	> 100			
COC(CC1(/C=C/O[Si](C(C)C)(C(C)C)C(C)C)C(=O)N(COCC[Si](C)(C)C)c2ccccc21)OC (configuration not stated)	> 100	> 100	> 100		52.9	60	38.3	> 100	> 100	> 100	> 100	> 100	69.4	> 100	> 100	> 100	> 100	> 100	
COc1cc(OC)c2c(=O)c(OC)c(-c3ccc4c(c3)OCO4)oc2c1OC	> 100	> 100	> 100	> 100	> 100	> 100	> 100	> 100	> 100	> 100	> 100	> 100	> 100	> 100	> 100	> 100	> 100		40.4
